# Key:
# [1] = tested on: mice exposed to cigarette smoke; experiment: Cigarette smoke exposure model, BALF total cell counts; type: in vivo; settings: cigarette smoke 10 days; inhaled Compound 1 once a day for last four days; sacrifice 1 hour after final dose
# Protocol: In order to determine if the observed effects of Compound 1 were specific to a model of acute lung injury, we exposed mice to cigarette smoke, a more chronic model of lung injury, for 10 days while treating once a day with inhaled Compound 1 for the last four days of smoke exposure. Mice were sacrificed 1 hour following their final dose of Compound 1 on the 10th day. BALF was collected and total cell counts were performed. […] (*p<0.05).
# LPS injured mice = experiment: Pulmonary wet to dry ratio (edema), LPS-injured mice, single inhaled dose; type: in vivo, C57BL/6J mice; settings: LPS 1.5 mg/kg; 24 hours later single aerosolized dose 35 mg/kg; right middle lobe; n=3/group (control 4.1, LPS 12.9)
# Protocol: We next determined if inhaled Compound 1 attenuated specific features of acute inflammatory lung injury that were also observed in response to LPS. Again, 12-week-old male C57BL/6J mice were intranasally instilled with LPS (1.5 mg/kg of 1 mg/ml solution in sterile PBS). 24 hours later, these mice received a single dose of aerosolized MMP inhibitor (Compound 1, dissolved in PBS, 35 mg/kg) or PBS alone and a tail vein injection of FITC labeled albumin (FITC-albumin). One hour following nebulization, the mice were sacrificed. The left lung was fixed in formalin from each animal, paraffin embedded, sectioned and stained with H&E to examine histological features indicative of lung injury. These were achieved by visually scoring each slide based on a lung injury scoring system developed by the American Thoracic Society for animal models of inflammatory lung injury.
# Edema was also assessed by determination of pulmonary wet to dry ratios. At the time of sacrifice the right middle lobe was removed from each animal and promptly weighed to obtain the wet weight. Thereafter, the lung tissue was dried in an oven at 65° C. for 72 hours and then weighed to obtain the dry weight.
# neutrophils [2] = experiment: BrdU pulse-chase labeling of newly synthesized neutrophils in BALF of LPS-exposed mice; type: in vivo; settings: LPS treated mice, n=3 (49.3±0.87% without treatment)
# Protocol: To examine the hypothesis that reduced neutrophil counts in response to Compound 1 treatment resulted from decreased cell migration from the pulmonary circulation, pulse-chase labeling of newly synthesized neutrophils in LPS exposed animals was performed. LPS or saline was nasally instilled into mice which were then allowed to recover for 24 hours. Following this, an intraperitoneal injection (IP injections) of bromodeoxyuridine (BrdU) was administered and animals were allowed to rest for 2.5 hours. A 2.5-hour rest period was selected since it was previously determined that BrdU labeled neutrophils take about 3 hours to reach and infiltrate the lungs. At 2.5 hours animals received inhaled Compound 1 or PBS and were sacrificed at either 15- or 45 minutes post-treatment. Cytospin slides were generated from BALF and immunofluorescently stained for BrdU and MPO to identify neutrophils. Confocal images were taken of cytospins stained for BrdU and MPO (myeloperoxidase). The number of BrdU (+) and BrdU (−) neutrophils was quantified.
# neutrophils [3] = experiment: Neutrophil influx: myeloperoxidase staining and BALF differential cell counts, LPS-injured mice, q6h x 4 doses; type: in vivo
# Protocol: Mice were nasally instilled with LPS followed by treatment with CGS every 6 hours for 4 doses. Mice were sacrificed 6 hours after the 4th dose of Compound 1 and lungs and BALF were collected for analysis. Paraffin embedded lung sections ([…]) were stained for myeloperoxidase, a neutrophil marker, followed by detection using DAB, to assess parenchymal neutrophil infiltration.
# Differential cell counts were taken from each animal's cytospin with at least 3 separate images counted.
# [4] = Lung homogenate levels after nebulized Compound 1, Example 5 (mass spectroscopy); type: in vivo, C57/BL6 mice; settings: for Compound 1 levels in the lung: nebulized, dose groups pooled, lung homogenate, n=6
# Protocol: In this test, C57/BL6 mice were divided into three treatment groups, where they received nebulized Compound 1 at high dose (10 mg/kg), medium dose (5 mg/kg) and, low dose (2 mg/kg). Animals were sacrificed at 1, 3 and, 5 hours (n=3 mice per time point) followed by collection of lung homogenates. Homogenates were analyzed by mass spectroscopy to determine Compound 1 levels in the lung.
# [5] = Lung and serum levels after nebulized Compound 1 in mice (mass spectroscopy); type: in vivo
# Protocol: The compound was administered with a nebulizer of (FIG. 1A). With a 9 cc Medication Nebulizer, a dose of liquid medicine was prepared to a final concentration of 5 ml (3 mg/mL). Treatment was for approximately 20-30 minutes until all liquid was delivered. […] The nebulizer includes a Hospital grade Schuco air compressor 100, Blue top medication nebulizer 110, Plastic collar 120, White elbow hose connector 130, 7′ crush proof 02 tubing to air compressor 140, and MPC Aerosol Pie Cage 150. Technical Specifications of the nebulizing system were as follows:
# The pie cage 150 has 12 slots to hold 12 mice.
# 10 mice were divided into three trial groups:
# Low dose group: 3 mice at 2 mg dose (˜5 mg/kg) Medium dose group: 3 mice at 5 mg dose (˜12 mg/kg) High dose group: 4 mice at 10 mg dose (˜35 mg/kg)
# The mice were nebulized within their respective dosing group for fifteen minutes (starting with the lowest dosing and moving up to the highest). One mouse was sacrificed per group at 1 hour, 3 hours and 5 hours after the drug delivery (2 mice were sacrificed for the 10 mg dose group).
# […] were collected during sacrifice: upper and lower left lung, right lung, and serum. The order of sample collection was: first blood, then left lung, then right lung. Before removing the right lung, but after removing the left lung, the right lung was lavaged. The lung samples were immediately placed into liquid nitrogen and the blood samples rested for 4 hours at room temperature. After the blood clotted it was centrifuged and the serum was taken into a new tube. Lung and serum samples were then analyzed by mass spectroscopy.
substance,measurement,setting,value
"butanamide, N-hydroxy-2-[[(4-hydroxyphenyl)sulfonyl](3-pyridinylmethyl)amino]-3-methyl, hydrochloride, (2R) [Compound 1]",smoke induced increase in BALF cell counts,[1],failed to attenuate
same,pulmonary wet:dry ratio,LPS injured mice,7.3
same,percentage of BrdU (+) neutrophils,neutrophils [2]; 15 minutes post inhaled treatment,16.7±3.6%
same,percentage of BrdU (+) neutrophils,neutrophils [2]; 45 minutes post inhaled treatment,22.7±2.5%
same,overall inflammatory cell count in BALF,"neutrophils [3]; LPS then every 6 hours for 4 doses, n≥4 (LPS only 8.0e6±5.7e6)",8.6e5±3.7e5 cells/mL
same,parenchymal neutrophil infiltration (myeloperoxidase staining),"neutrophils [3]; LPS then every 6 hours for 4 doses, sacrifice 6 hours after 4th dose",qualitatively reduced parenchymal neutrophil infiltration
same,neutrophil count within the BALF,"neutrophils [3]; LPS-CGS group, every 6 hours for 4 doses, n≥5 (LPS-PBS 8.0e6±5.7e6)",2.4e6±1.2e6 cells/ml
same,Compound 1 levels in the lung,[4]; 1 h post-inhalation,310.7 ± 85.38 ng/g
same,Compound 1 levels in the lung,[4]; 3 h post-inhalation,49.03 ± 15.54 ng/g
same,Compound 1 levels in the lung,[4]; 5 h post-inhalation,24.48 ± 9.96 ng/g
same,effect of dose size on Compound 1 concentration in lung,"[4]; high (10 mg/kg), medium (5 mg/kg), low (2 mg/kg) nebulized dose, 1, 3, 5 hours",no significant effect
same,Mouse Lung MMI 270,"[5]; High Dose (10 mg, ~35 mg/kg, nebulized), 1 hour later, Left Lung Lower Lobe",1415.95 ng/g
same,Mouse Lung MMI 270,"[5]; High Dose (10 mg, ~35 mg/kg, nebulized), 1 hour later, Right Lung Lower Lobe",598.24 ng/g
same,Mouse Serum MMI 270,"[5]; High Dose (10 mg, ~35 mg/kg, nebulized), 1 hour later",87.99 ng/mL
same,Mouse Lung MMI 270,"[5]; High Dose (10 mg, ~35 mg/kg, nebulized), 3 hour later, Left Lung Lower Lobe",119.51 ng/g
same,Mouse Lung MMI 270,"[5]; High Dose (10 mg, ~35 mg/kg, nebulized), 3 hour later, Right Lung Lower Lobe",50.75 ng/g
same,Mouse Serum MMI 270,"[5]; High Dose (10 mg, ~35 mg/kg, nebulized), 3 hour later",7.93 ng/mL
same,Mouse Lung MMI 270,"[5]; High Dose (10 mg, ~35 mg/kg, nebulized), 5 hour later, Left Lung Lower Lobe",70.67 ng/g
same,Mouse Lung MMI 270,"[5]; High Dose (10 mg, ~35 mg/kg, nebulized), 5 hour later, Right Lung Lower Lobe",23.36 ng/g
same,Mouse Serum MMI 270,"[5]; High Dose (10 mg, ~35 mg/kg, nebulized), 5 hour later",3.79 ng/mL
same,Mouse Lung MMI 270,"[5]; Low Dose (2 mg, ~5 mg/kg, nebulized), 1 hour later, Left Lung Lower Lobe",102.10 ng/g
same,Mouse Lung MMI 270,"[5]; Low Dose (2 mg, ~5 mg/kg, nebulized), 1 hour later, Right Lung Lower Lobe",155.55 ng/g
same,Mouse Serum MMI 270,"[5]; Low Dose (2 mg, ~5 mg/kg, nebulized), 1 hour later",2.97 ng/mL
same,Mouse Lung MMI 270,"[5]; Low Dose (2 mg, ~5 mg/kg, nebulized), 3 hour later, Left Lung Lower Lobe",42.92 ng/g
same,Mouse Lung MMI 270,"[5]; Low Dose (2 mg, ~5 mg/kg, nebulized), 3 hour later, Right Lung Lower Lobe",12.60 ng/g
same,Mouse Serum MMI 270,"[5]; Low Dose (2 mg, ~5 mg/kg, nebulized), 3 hour later",<LLOQ
same,Mouse Lung MMI 270,"[5]; Low Dose (2 mg, ~5 mg/kg, nebulized), 5 hour later, Left Lung Lower Lobe",13.21 ng/g
same,Mouse Lung MMI 270,"[5]; Low Dose (2 mg, ~5 mg/kg, nebulized), 5 hour later, Right Lung Lower Lobe",<LLOQ
same,Mouse Serum MMI 270,"[5]; Low Dose (2 mg, ~5 mg/kg, nebulized), 5 hour later",<LLOQ
same,Mouse Lung MMI 270,"[5]; Medium Dose (5 mg, ~12 mg/kg, nebulized), 1 hour later, Left Lung Lower Lobe",465.18 ng/g
same,Mouse Lung MMI 270,"[5]; Medium Dose (5 mg, ~12 mg/kg, nebulized), 1 hour later, Right Lung Lower Lobe",127.68 ng/g
same,Mouse Serum MMI 270,"[5]; Medium Dose (5 mg, ~12 mg/kg, nebulized), 1 hour later",20.06 ng/mL
same,Mouse Lung MMI 270,"[5]; Medium Dose (5 mg, ~12 mg/kg, nebulized), 3 hour later, Left Lung Lower Lobe",49.60 ng/g
same,Mouse Lung MMI 270,"[5]; Medium Dose (5 mg, ~12 mg/kg, nebulized), 3 hour later, Right Lung Lower Lobe",18.92 ng/g
same,Mouse Serum MMI 270,"[5]; Medium Dose (5 mg, ~12 mg/kg, nebulized), 3 hour later",3.40 ng/mL
same,Mouse Lung MMI 270,"[5]; Medium Dose (5 mg, ~12 mg/kg, nebulized), 5 hour later, Left Lung Lower Lobe",26.04 ng/g
same,Mouse Lung MMI 270,"[5]; Medium Dose (5 mg, ~12 mg/kg, nebulized), 5 hour later, Right Lung Lower Lobe",13.55 ng/g
same,Mouse Serum MMI 270,"[5]; Medium Dose (5 mg, ~12 mg/kg, nebulized), 5 hour later",<LLOQ
